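These data come from cells grown in 96-well plates and exposed to compound for 48 hours at five concentrations. TGI: total growth inhibition.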
Key:
Assay in all cases: NCI-60 cell line screen, 48 h
[1] = test system: M19-MEL melanoma
[2] = test system: XF 498 CNS
[3] = test system: NCI-H226 lung
[4] = test system: DMS 273 small cell lung
[5] = test system: SNB-78 CNS
[6] = test system: COLO 205 colon
[7] = test system: KM20L2 colon
[8] = test system: RXF-631 renal
[9] = test system: LXFL 529 NSCLC
[10] = test system: DLD-1 colon
[11] = test system: DMS 114 small cell lung
[12] = test system: HOP-18 NSCLC
[13] = test system: PC-3 prostate

SMILES	TGI [1] [µM]	TGI [2] [µM]	TGI [3] [µM]	TGI [4] [µM]	TGI [5] [µM]	TGI [6] [µM]	TGI [7] [µM]	TGI [8] [µM]	TGI [9] [µM]	TGI [10] [µM]	TGI [11] [µM]	TGI [12] [µM]	TGI [13] [µM]
O=C(CC(=O)N1N=C(c2ccccc2)C(N=Nc2ccc(Cl)cc2)C1=O)Nc1ccccc1Cl (stereo unspecified)	> 100	89.7	62.6	> 100	> 100	> 100	> 100	> 100	> 100	> 100	> 100	67.8	
CC1=CC(=O)NP(=O)(Oc2ccc(C)cc2)N1 (stereo unspecified)	> 100	> 100	> 100	> 100	> 100	> 100	> 100	> 100	> 100	> 100	> 100	> 100	
COc1cc(C2c3cc4c(cc3[C@H](OCCN(C)C)[C@@H]3COC(=O)C23)OCO4)cc(OC)c1O (stereo partly specified)	4.79	1.88	0.301	1.31	> 93.2	9.05	2.98	1.07	28	3.96		> 100	81.1
COC(=O)C(=O)C(C(=O)C(=O)Nc1ccc(C)cc1C)c1nc2ccccc2[nH]c1=O (stereo unspecified)	> 100	> 100	> 100		> 100	> 100	> 100	> 100	> 100	> 100		> 100	

— PubChem BioAssay (NCI)
